In one assay the target is eeAChE (Electrophorus electricus, UniProt O42275). The experiment in a line: biochemical.
A further assay has as its target hBChE (Homo sapiens, UniProt P06276). As to the kind of experiment: biochemical. Format: biochemical.
A further assay addresses T1, hCB1R (Homo sapiens, UniProt P21554).
T1 construct: expressed in transfected cells; host or cells: CHO cells stably expressing hCB1R
Format: binding.

For assay [1], the target named is T2, hCB2R (Homo sapiens, UniProt P34972).
T2 construct: expressed in transfected cells; host or cells: HEK cells stably expressing hCB2R
T2 sequence (P34972 whole entry): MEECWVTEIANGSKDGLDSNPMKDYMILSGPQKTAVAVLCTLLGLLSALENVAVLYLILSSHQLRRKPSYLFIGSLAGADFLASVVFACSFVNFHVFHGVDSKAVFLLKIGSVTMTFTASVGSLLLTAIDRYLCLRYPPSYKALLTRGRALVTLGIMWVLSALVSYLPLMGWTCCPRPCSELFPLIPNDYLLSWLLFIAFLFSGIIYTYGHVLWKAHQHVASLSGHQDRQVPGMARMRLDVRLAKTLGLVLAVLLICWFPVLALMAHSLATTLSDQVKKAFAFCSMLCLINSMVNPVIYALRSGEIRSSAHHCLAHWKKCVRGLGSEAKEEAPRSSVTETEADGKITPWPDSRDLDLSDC
The experiment in a line: biochemical. The class given is binding.

The target of another assay is hAChE (Homo sapiens, UniProt P22303). The experiment in a line: biochemical. Format: biochemical.
Sequence of hAChE (P22303 32-614): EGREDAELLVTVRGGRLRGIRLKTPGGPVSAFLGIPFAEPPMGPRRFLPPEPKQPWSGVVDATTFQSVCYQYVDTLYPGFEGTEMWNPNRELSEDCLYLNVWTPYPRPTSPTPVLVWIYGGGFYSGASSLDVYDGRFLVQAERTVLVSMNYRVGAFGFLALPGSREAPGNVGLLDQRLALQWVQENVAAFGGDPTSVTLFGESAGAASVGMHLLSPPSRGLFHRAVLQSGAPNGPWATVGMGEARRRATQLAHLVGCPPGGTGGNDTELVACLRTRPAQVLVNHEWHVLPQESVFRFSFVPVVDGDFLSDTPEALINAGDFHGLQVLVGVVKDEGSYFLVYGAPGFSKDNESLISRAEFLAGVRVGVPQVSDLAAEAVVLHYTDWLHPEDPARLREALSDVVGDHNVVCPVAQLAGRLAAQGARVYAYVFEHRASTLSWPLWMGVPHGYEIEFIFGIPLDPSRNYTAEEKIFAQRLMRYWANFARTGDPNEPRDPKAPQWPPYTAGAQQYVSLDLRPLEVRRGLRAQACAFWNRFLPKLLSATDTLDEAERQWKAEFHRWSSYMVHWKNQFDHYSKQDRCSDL
A further assay deals with HT-22 cells. Format: cell-based, murine.
In assay [2] the test system is Aβ25-35-induced learning impairments in mice. As to conditions: mouse, in vivo, ip.
Assay [3] relates to murine microglial cell line N9. The experiment in a line: Microglia activation: LPS-activated N9 cells, M1/M2 markers (Griess reaction, western blot). As to conditions: N9 cells, 100 ng/mL LPS, 1-5 µM compound, 24 h. Format: cell-based. (Nitrite, measured by Griess reagent, commonly stands in for NO production.)
In the next assay the target is Aβ42 (Homo sapiens, UniProt P05067). As to the kind of experiment: Aβ42 self-aggregation, thioflavin-T fluorescence assay. The class given is biochemical. The settings on record: for inhibition at 50 µM: read-out: % inhibition Aβ aggregation self-induced; for inhibition of Aβ42 self-aggregation (in words): 1/1 ratio with Aβ42.
Sequence of Aβ42 (P05067 672-713): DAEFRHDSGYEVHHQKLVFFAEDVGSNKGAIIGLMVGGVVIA
Assay [4] addresses hAChE-induced Aβ40 aggregation (Homo sapiens, UniProt P22303). As to the kind of experiment: biochemical. Format: biochemical.
Assay [5] addresses T2, hCB2R. The class given is cell-based.
[6] abbreviates: eeAChE from electric eel, read-out: IC50 AChE (eeAChE).

Molecules are shown by their SMILES. Read-outs that look alike come from different tables or passages of the source. A value given as a limit tells only on which side of the number the result lay.

Sequence of eeAChE (O42275 24-633): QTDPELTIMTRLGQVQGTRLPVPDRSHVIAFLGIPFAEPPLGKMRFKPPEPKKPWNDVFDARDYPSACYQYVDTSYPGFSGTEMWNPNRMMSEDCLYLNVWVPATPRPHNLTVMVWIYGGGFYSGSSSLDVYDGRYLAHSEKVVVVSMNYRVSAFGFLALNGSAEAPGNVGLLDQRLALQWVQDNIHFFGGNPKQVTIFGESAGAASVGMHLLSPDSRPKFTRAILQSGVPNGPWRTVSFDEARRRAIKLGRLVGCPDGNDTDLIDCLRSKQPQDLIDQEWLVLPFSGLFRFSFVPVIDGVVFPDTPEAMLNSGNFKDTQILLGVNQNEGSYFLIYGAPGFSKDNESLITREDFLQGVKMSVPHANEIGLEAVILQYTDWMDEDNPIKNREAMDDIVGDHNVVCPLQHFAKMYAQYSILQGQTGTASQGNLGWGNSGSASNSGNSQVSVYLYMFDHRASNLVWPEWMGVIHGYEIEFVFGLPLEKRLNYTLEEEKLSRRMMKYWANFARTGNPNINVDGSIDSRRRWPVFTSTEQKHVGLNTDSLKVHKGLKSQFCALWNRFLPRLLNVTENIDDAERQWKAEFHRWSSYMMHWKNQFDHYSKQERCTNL
T1 sequence (P21554 whole entry): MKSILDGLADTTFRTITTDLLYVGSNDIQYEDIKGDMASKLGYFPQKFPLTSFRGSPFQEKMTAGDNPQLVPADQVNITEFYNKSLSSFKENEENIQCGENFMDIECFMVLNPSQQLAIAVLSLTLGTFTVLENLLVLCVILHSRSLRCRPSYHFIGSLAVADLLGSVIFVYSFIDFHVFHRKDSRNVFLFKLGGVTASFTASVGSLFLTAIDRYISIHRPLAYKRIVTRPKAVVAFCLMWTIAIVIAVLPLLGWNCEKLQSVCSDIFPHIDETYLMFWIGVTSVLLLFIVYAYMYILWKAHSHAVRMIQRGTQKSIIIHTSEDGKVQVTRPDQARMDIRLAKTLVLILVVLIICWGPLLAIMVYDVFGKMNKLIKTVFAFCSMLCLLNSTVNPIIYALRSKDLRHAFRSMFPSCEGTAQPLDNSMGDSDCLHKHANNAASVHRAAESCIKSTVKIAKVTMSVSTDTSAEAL
Sequence of hBChE (P06276 29-602): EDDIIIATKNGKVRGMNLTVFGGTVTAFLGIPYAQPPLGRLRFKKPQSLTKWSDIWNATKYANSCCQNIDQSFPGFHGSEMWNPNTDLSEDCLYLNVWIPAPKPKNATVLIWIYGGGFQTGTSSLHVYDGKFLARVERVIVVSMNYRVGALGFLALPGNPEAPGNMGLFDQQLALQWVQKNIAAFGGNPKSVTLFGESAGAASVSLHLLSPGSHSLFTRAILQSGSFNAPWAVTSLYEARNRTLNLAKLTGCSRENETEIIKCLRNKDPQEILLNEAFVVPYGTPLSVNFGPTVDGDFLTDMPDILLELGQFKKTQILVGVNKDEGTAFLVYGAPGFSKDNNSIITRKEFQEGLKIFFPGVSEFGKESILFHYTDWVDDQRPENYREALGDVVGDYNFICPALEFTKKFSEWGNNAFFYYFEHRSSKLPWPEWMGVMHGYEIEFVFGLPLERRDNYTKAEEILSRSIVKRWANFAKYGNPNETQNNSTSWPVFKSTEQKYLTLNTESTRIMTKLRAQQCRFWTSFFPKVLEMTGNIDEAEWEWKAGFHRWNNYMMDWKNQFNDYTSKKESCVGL
Sequence of hAChE-induced Aβ40 aggregation (P22303 32-614): as the sequence (P22303 32-614) above

As for `CCOc1ccc(Cc2nc3cc(C(=O)N(CC)CC)ccc3n2CCCNc2c3c(nc4ccccc24)CCCC3)cc1` [3b, 2-(4-Ethoxybenzyl)-N,N-diethyl-1-(3-((1,2,3,4-tetrahydroacridin-9-yl)amino)propyl)-1H-benzo[d]imidazole-5-carboxamide], the half-maximal inhibitory concentration (IC50) – broadly, the midpoint of a concentration-inhibition curve – on eeAChE (setting [6]) was 130 nM. For the same compound, on hBChE, the “inhibitory potency towards hBChE compared to tacrine” value is recorded as “increased inhibitory potency”. Besides, the “[^3H]CP 55,940 displ. @10 µM hCB1R” value at hCB1R stood at 15%.
As to `CCOc1ccc(Cc2nc3cc(C(=O)N(CC)CC)ccc3n2CCCCNc2c3c(nc4ccccc24)CCCC3)cc1` [3c, 2-(4-ethoxybenzyl)-N,N-diethyl-1-(4-((1,2,3,4-tetrahydroacridin-9-yl)amino)butyl)-1H-benzo[d]imidazole-5-carboxamide], the 50% inhibitory concentration (IC50) on eeAChE (setting [6]) is 157 nM. Moreover, the results for the Ki on hCB2R [1] and at hCB2R [1] (read-out: Ki hCB2R) were 25100 nM and 26900 nM, respectively. Also, on hCB1R, the “[^3H]CP 55,940 displ. @10 µM hCB1R” value came out at 32%.
As to `CCOc1ccc(Cc2nc3cc(C(=O)N(CC)CC)ccc3n2CCCCCNc2c3c(nc4ccccc24)CCCC3)cc1` [3d, 2-(4-Ethoxybenzyl)-N,N-diethyl-1-(5-((1,2,3,4-tetrahydroacridin-9-yl)amino)pentyl)-1H-benzo[d]imidazole-5-carboxamide], the IC50 is 199 nM on eeAChE and 641 nM against hAChE (IC50 AChE (hAChE)). The figures for the Ki at hCB2R [1] and at hCB2R [1] (read-out: Ki hCB2R) were 7940 nM and 7300 nM, respectively. Also, on hAChE, the “pIC50 ± SD AChE (hAChE)” value is reported as 199 nM^b 641 nM^c (6.2 ± 0.1). In addition, the “neuroprotective behavior (in words)” value in the assay with HT-22 cells was “none”. Further, the “[^3H]CP 55,940 displ. @10 µM hCB1R” value on hCB1R is 21%. In addition, the “dose that significantly prevented Aβ25-35-induced learning impairments” value in [2] is on record as 0.3 mg/kg.
`CCOc1ccc(Cc2nc3cc(C(=O)NCCNc4c5c(nc6ccccc46)CCCC5)ccc3n2CCC(C)C)cc1` [4a, 2-(4-Ethoxybenzyl)-1-isopentyl-N-(2-((1,2,3,4-tetrahydroacridin-9-yl)amino)ethyl)-1H-benzo[d]imidazole-5-carboxamide]: the “NO release / nitrite accumulation” value in assay [3] is given as “reduced”. In addition, in assay [3] (M1 marker), the IL1β release result is given as “significantly decrease” and the iNOS expression result was “significantly decrease”. Also, in assay [3] (M2 marker), the TGFβ2 expression entry is “not reduced” and the TREM2 expression entry is given as “not reduced”. At eeAChE (setting [6]), the IC50 came to 2.1 nM. Moreover, on hCB2R [1], the “pIC50 ± SD hCB2R (in brackets after Ki)” value is 2.5 µM (5.6 ± 0.2). At hCB2R [1] (read-out: Ki hCB2R), the Ki – broadly, the dissociation constant of the complex between target and ligand, obtained from inhibition or displacement – is 2500 nM. Moreover, in assay [2], the “dose that significantly prevented Aβ25-35-induced learning impairments” value amounted to 0.3 mg/kg and the “most effective dose (completely prevented Aβ25-35 impairments in both tests)” value is recorded as 1 mg/kg.
Turning to `CCOc1ccc(Cc2nc3cc(C(=O)NCCCNc4c5c(nc6ccccc46)CCCC5)ccc3n2CCC(C)C)cc1` [4b, 2-(4-Ethoxybenzyl)-1-isopentyl-N-(3-((1,2,3,4-tetrahydroacridin-9-yl)amino)propyl)-1H-benzo[d]imidazole-5-carboxamide], at eeAChE (setting [6]), the IC50 amounted to 3.2 nM. The “pIC50 ± SD hCB2R (in brackets after Ki)” value at hCB2R [1] is on record as 5.0 µM (5.3 ± 0.1). In addition, the Ki on hCB2R [1] (read-out: Ki hCB2R) is 5000 nM. Moreover, the “inhibitory potency towards hBChE compared to tacrine” value at hBChE was “increased inhibitory potency”. Moreover, at hAChE (compared to tacrine), the “inhibitory activity towards hAChE compared to tacrine” value is given as “higher inhibitory activity”. Also, on Aβ42 (50 µM inhibitor and 50 µM Aβ42, mean ± SEM), the inhibition (as a rule, how much of the control response was suppressed) at 50 µM amounted to 16.4 ± 4.2%. Moreover, the “inhibition of Aβ42 self-aggregation (in words)” value on Aβ42 was “quite weak”. For the same compound, the “[^3H]CP 55,940 displ. @10 µM hCB1R” value at hCB1R is 20%. Also, the “inhibition of AChE-induced Aβ40 aggregation (in words)” value in assay [4] is on record as “significantly reduce”. Besides, in assay [4] ([I] = 100 µM, Aβ40/hAChE ratio 100/1, mean ± SEM, read-out: % inhibition Aβ aggregation AChE-induced), the inhibition at 100 µM is 47.8 ± 9.6%.
As to `CCOc1ccc(Cc2nc3cc(C(=O)NCCCCNc4c5c(nc6ccccc46)CCCC5)ccc3n2CCC(C)C)cc1` [4c, 2-(4-Ethoxybenzyl)-1-isopentyl-N-(4-((1,2,3,4-tetrahydroacridin-9-yl)amino)butyl)-1H-benzo[d]imidazole-5-carboxamide], the IC50 at eeAChE (setting [6]) was 12.8 nM. On hCB2R [1], this compound had a Ki of 2510 nM. On hCB2R [1] (read-out: Ki hCB2R), the Ki worked out at 2400 nM. The “[^3H]CP 55,940 displ. @10 µM hCB1R” value on hCB1R is on record as 9%. Also, at hCB2R [5], the MIF gene expression result is listed as “reduced”, the STAT-3 gene expression result was “reduced” and the “behavior at the hCB2R” value was “maintained their agonist behavior”.
`CCOc1ccc(Cc2nc3cc(C(=O)NCCCCCNc4c5c(nc6ccccc46)CCCC5)ccc3n2CCC(C)C)cc1` [4d, 2-(4-Ethoxybenzyl)-1-isopentyl-N-(5-((1,2,3,4-tetrahydroacridin-9-yl)amino)pentyl)-1H-benzo[d]imidazole-5-carboxamide]: the IC50 on eeAChE (setting [6]) is 52.7 nM. The “pIC50 ± SD hCB2R (in brackets after Ki)” value on hCB2R [1] is reported as 4.0 µM (5.4 ± 0.1). The inhibitory constant (Ki) on hCB2R [1] (read-out: Ki hCB2R) came to 4000 nM. For the same compound, the “[^3H]CP 55,940 displ. @10 µM hCB1R” value on hCB1R amounted to 15%.
Take `CCOc1ccc(Cc2nc3cc(C(=O)NCCCCCCNc4c5c(nc6ccccc46)CCCC5)ccc3n2CCC(C)C)cc1` [4e, 2-(4-Ethoxybenzyl)-1-isopentyl-N-(6-((1,2,3,4-tetrahydroacridin-9-yl)amino)hexyl)-1H-benzo[d]imidazole-5-carboxamide]: the IC50 at eeAChE (setting [6]) came out at 8.5 nM. Further, the results for the Ki on hCB2R [1] and at hCB2R [1] (read-out: Ki hCB2R) were 10000 nM and 9600 nM, respectively. In addition, the “[^3H]CP 55,940 displ. @10 µM hCB1R” value on hCB1R was found to be 54%.
Regarding `Cc1c(C(=O)NN2CCCCC2)nn(-c2ccc(Cl)cc2Cl)c1-c1ccc(Cl)cc1` [Rimonabant, reference compound], the “[^3H]CP 55,940 displ. @10 µM hCB2R” value at hCB2R [1] is reported as 4%.
On to `Nc1c2c(nc3ccccc13)CCCC2` [Tacrine 1, tacrine, reference compound], for which, on Aβ42, the “inhibition of Aβ42 self-aggregation (in words)” value was “no effect” and the inhibition at 50 µM is less than 5%.
Consider `CCOc1ccc(Cc2nc3cc(C(=O)N(CC)CCCCNc4c5c(nc6ccccc46)CCCC5)ccc3n2CCC(C)C)cc1` [compound 5, 2-(4-ethoxybenzyl)-N-ethyl-1-isopentyl-N-(4-((1,2,3,4-tetrahydroacridin-9-yl)amino)butyl)-1H-benzo[d]imidazole-5-carboxamide], for which the IC50 at eeAChE (setting [6]) came to 370 nM. At hCB2R [1], the Ki is 3160 nM, the “affinity towards hCB2R (in words)” value is given as “same affinity” and the “selectivity hCB2R over hCB1R (in words)” value is “low selectivity”. Further, the inhibitory constant (Ki) on hCB2R [1] (read-out: Ki hCB2R) was found to be 3000 nM. This compound also showed an SI at hBChE of 6.2. Moreover, the “pIC50 ± SD hBChE” value at hBChE (hBChE from human serum) is 7.2 ± 0.1. Moreover, the IC50 at hBChE (hBChE from human serum, means of at least three determinations, read-out: IC50 hBChE) stood at 60 nM. For the same compound, the “pIC50 ± SD AChE (hAChE)” value on hAChE (hAChE recombinant expressed) was 6.6 ± 0.1. Further, the IC50 at hAChE (hAChE recombinant expressed, read-out: IC50 AChE (hAChE)) came out at 259 nM. For the same compound, on hCB1R, the “[^3H]CP 55,940 displ. @10 µM hCB1R” value turned out to be 36% and the “affinity towards hCB1R (in words)” value is “higher affinity”.
As to `CCOc1ccc(Cc2nc3cc(C(=O)N(CC)CC)ccc3n2CCOCCOCCNc2c3c(nc4ccccc24)CCCC3)cc1` [compound 6, 2-(4-Ethoxybenzyl)-N,N-diethyl-1-(2-(2-(2-((1,2,3,4-tetrahydroacridin-9-yl)amino)ethoxy)ethoxy)ethyl)-1H-benzo[d]imidazole-5-carboxamide], on eeAChE, the IC50 turned out to be 150 nM. In addition, at hCB2R [1], the affinity, expressed as Ki, was 31600 nM and the “affinity towards hCB2R (in words)” value is recorded as “weaker affinity”. Besides, the Ki on hCB2R [1] (read-out: Ki hCB2R) turned out to be 28700 nM. Besides, on hBChE, it took 90 nM to reach half-maximal inhibition (IC50) and the “pIC50 ± SD hBChE” value is reported as 90 nM (7.0 ± 0.1). Also, the “[^3H]CP 55,940 displ. @10 µM hCB1R” value on hCB1R came out at 11%.
For `CCOc1ccc(Cc2nc3cc(C(=O)NCCOCCOCCNc4c5c(nc6ccccc46)CCCC5)ccc3n2CCC(C)C)cc1` [compound 7, 2-(4-Ethoxybenzyl)-1-isopentyl-N-(2-(2-(2-((1,2,3,4-tetrahydroacridin-9-yl)amino)ethoxy)ethoxy)ethyl)-1H-benzo[d]imidazole-5-carboxamide], the figures for the IC50 against eeAChE, at hAChE (IC50 AChE (hAChE)) and at hAChE (pIC50 ± SD AChE (hAChE)) were 1030 nM, 1360 nM and 1400 nM, respectively. The Ki was 15800 nM at hCB2R [1] and 17400 nM at hCB2R [1] (read-out: Ki hCB2R). At hCB2R [1], the “affinity towards hCB2R (in words)” value is reported as “weaker affinity”. Besides, on hCB1R, the “[^3H]CP 55,940 displ. @10 µM hCB1R” value turned out to be 32%.
